From US7732475B2, “Histone deacetylase inhibitors” (Takeda San Diego, Inc., priority 2005, dated 2010)

Each molecule was assayed against HDAC2 (Homo sapiens, UniProt Q92769) (assay: HDAC2 fluorescence inhibition assay (tBoc-Lys(Ac)-AMC)).
Sequence of HDAC2 (Q92769 with tags, fused parts or gaps): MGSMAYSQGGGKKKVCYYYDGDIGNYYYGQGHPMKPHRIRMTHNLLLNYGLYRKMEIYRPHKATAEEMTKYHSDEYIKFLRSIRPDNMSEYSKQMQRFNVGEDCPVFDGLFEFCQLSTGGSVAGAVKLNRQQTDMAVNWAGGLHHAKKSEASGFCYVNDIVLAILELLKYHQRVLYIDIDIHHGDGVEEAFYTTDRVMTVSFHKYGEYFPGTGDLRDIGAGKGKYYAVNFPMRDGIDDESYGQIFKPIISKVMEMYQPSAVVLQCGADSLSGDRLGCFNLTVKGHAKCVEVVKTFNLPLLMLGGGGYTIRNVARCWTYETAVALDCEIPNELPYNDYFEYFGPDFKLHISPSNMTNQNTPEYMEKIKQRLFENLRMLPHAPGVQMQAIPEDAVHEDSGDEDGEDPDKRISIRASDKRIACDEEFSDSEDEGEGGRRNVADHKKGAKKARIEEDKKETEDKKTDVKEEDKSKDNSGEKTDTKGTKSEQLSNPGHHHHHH
In the case of `Nc1ccc(-c2ccccc2)cc1NC(=O)c1ccc(Cn2cc3ccccc3n2)cc1` [Example 27, N-(4-Amino-biphenyl-3-yl)-4-indazol-2-ylmethyl-benzamide], the IC50 is reported as ≤ 50 nM. `CCNC(=O)c1cnn(Cc2ccc(C(=O)Nc3ccccc3N)cc2)c1` [Example 135, 1-(4-(2-aminophenylcarbamoyl)benzyl)-N-ethyl-1H-pyrazole-4-carboxamide] gave an IC50 of 50 to 100 nM. For `CC(=O)Nc1ccc2nn(Cc3ccc(C(=O)Nc4ccccc4N)cc3)cc2c1` [Example 4, 4-((5-acetamido-2H-indazol-2-yl)methyl)-N-(2-aminophenyl)benzamide], the IC50 was ≤ 50 nM. `Nc1ccccc1NC(=O)c1ccc(Cn2nc3ccc(C(F)(F)F)cc3c2N)cc1` [Example 62, 4-((3-amino-5-(trifluoromethyl)-2H-indazol-2-yl)methyl)-N-(2-aminophenyl)benzamide] was tested, and the IC50 was ≤ 50 nM. With `CC(C)NC(=O)c1cnn(Cc2ccc(C(=O)Nc3ccccc3N)cc2)c1` [Example 137, 1-(4-(2-aminophenylcarbamoyl)benzyl)-N-isopropyl-1H-pyrazole-4-carboxamide] the IC50 was ≤ 50 nM. In the case of `Nc1ccccc1NC(=O)c1ccc(Cn2cc3ccc(F)cc3n2)cc1` [Example 35, N-(2-aminophenyl)-4-((6-fluoro-2H-indazol-2-yl)methyl)benzamide], the IC50 is reported as 50 to 100 nM. `C[C@@H](c1ccc(C(=O)Nc2ccccc2N)cc1)n1cc2ccccc2n1` [Example 51, (S)-4-(1-(2H-indazol-2-yl)ethyl)-N-(2-aminophenyl)benzamide] was tested, and the IC50 was 50 to 100 nM. `COCCOC(=O)Nc1ccc2nn(Cc3ccc(C(=O)Nc4ccccc4N)cc3)cc2c1` [Example 11, 2-Methoxyethyl 2-(4-((2-aminophenyl)carbamoyl)benzyl)-2H-indazol-5-ylcarbamate] was tested, and the IC50 was ≤ 50 nM. Molecule `Cc1ccn(Cc2ccc(C(=O)Nc3ccccc3N)cc2)n1` [Example 123, N-(2-aminophenyl)-4-((3-methyl-1H-pyrazol-1-yl)methyl)benzamide] has an IC50 of 100 to 500 nM. For `Cc1ccnn1Cc1ccc(C(=O)Nc2ccccc2N)cc1` [Example 148, N-(2-aminophenyl)-4-((5-methyl-1H-pyrazol-1-yl)methyl)benzamide], the IC50 was 100 to 500 nM. In the case of `COc1cc2cnn(Cc3ccc(C(=O)Nc4ccccc4N)cc3)c2cc1OC` [Example 99, N-(2-aminophenyl)-4-((5,6-dimethoxy-1H-indazol-1-yl)methyl)benzamide], the IC50 is reported as ≤ 50 nM. `COCCOC(=O)Nc1ccc2c(cnn2Cc2ccc(C(=O)Nc3ccccc3N)cc2)c1` [Example 13, 2-Methoxyethyl 1-(4-((2-aminophenyl)carbamoyl)benzyl)-1H-indazol-5-ylcarbamate] was tested, and the IC50 was ≤ 50 nM. With `COc1cccc2c1cnn2Cc1ccc(C(=O)Nc2ccccc2N)cc1` [Example 85, N-(2-aminophenyl)-4-((4-methoxy-1H-indazol-1-yl)methyl)benzamide] the IC50 was ≤ 50 nM. In the case of `Cc1nn(Cc2ccc(C(=O)Nc3ccccc3N)cc2)c2cccc(F)c12` [Example 54, N-(2-aminophenyl)-4-((4-fluoro-3-methyl-1H-indazol-1-yl)methyl)benzamide], the IC50 is reported as 100 to 500 nM. `CCOC(=O)c1cnn(Cc2ccc(C(=O)Nc3ccccc3N)cc2)c1` [Example 125, Ethyl 1-(4-(2-aminophenylcarbamoyl)benzyl)-1H-pyrazole-4-carboxylate] showed an IC50 of 50 to 100 nM. `Nc1ccccc1NC(=O)c1ccc(Cn2nc(-c3ccccc3)c3ccccc32)cc1` [Example 76, N-(2-aminophenyl)-4-((3-phenyl-1H-indazol-1-yl)methyl)benzamide] showed an IC50 of 50 to 100 nM. Molecule `Cc1c2ccc(O)cc2nn1Cc1ccc(C(=O)Nc2ccccc2N)cc1` [Example 75, N-(2-aminophenyl)-4-((6-hydroxy-3-methyl-2H-indazol-2-yl)methyl)benzamide] has an IC50 of 100 to 500 nM. With `CC(=O)Nc1ccc2nn(Cc3ccc(C(=O)Nc4ccccc4N)cc3)c(C)c2c1` [Example 106, 4-((5-acetamido-3-methyl-2H-indazol-2-yl)methyl)-N-(2-aminophenyl)benzamide] the IC50 was ≤ 50 nM. For `Nc1ccccc1NC(=O)c1ccc(Cn2cc3cccc(F)c3n2)cc1` [Example 47, N-(2-aminophenyl)-4-((7-fluoro-2H-indazol-2-yl)methyl)benzamide], the IC50 was 50 to 100 nM. `Nc1ccccc1NC(=O)c1ccc(Cn2cc3cccnc3n2)cc1` [Example 25, 4-((2H-Pyrazolo[3,4-b]pyridin-2-yl)methyl)-N-(2-aminophenyl)benzamide] was tested, and the IC50 was 100 to 500 nM. `Nc1ccccc1NC(=O)c1ccc(CNc2n[nH]c3ccccc23)cc1` [Example 30, 4-((1H-indazol-3-ylamino)methyl)-N-(2-aminophenyl)benzamide] gave an IC50 of 50 to 100 nM. `Nc1ccccc1NC(=O)c1ccc(Cn2cc3cc(NC(=O)c4ccccc4)ccc3n2)cc1` [Example 10, 4-((5-benzamido-2H-indazol-1-yl)methyl)-N-(2-aminophenyl)benzamide] was tested, and the IC50 was ≤ 50 nM. In the case of `Cc1nn(Cc2ccc(C(=O)Nc3ccccc3N)cc2)c2cc(C(F)(F)F)ccc12` [Example 93, N-(2-aminophenyl)-4-((3-methyl-6-(trifluoromethyl)-1H-indazol-1-yl)methyl)benzamide], the IC50 is reported as 50 to 100 nM. With `Nc1ccccc1NC(=O)c1ccc(Cn2cc(C(=O)NCCN3CCNCC3)cn2)cc1` [Example 103, 1-(4-(2-aminophenylcarbamoyl)benzyl)-N-(2-(piperazin-1-yl)ethyl)-1H-pyrazole-4-carboxamide] the IC50 was ≤ 50 nM. With `COc1ccc2c(C)n(Cc3ccc(C(=O)Nc4cc(-c5cccs5)ccc4N)cc3)nc2c1` [Example 116, N-(2-amino-5-(thiophen-2-yl)phenyl)-4-((6-methoxy-3-methyl-2H-indazol-2-yl)methyl)benzamide] the IC50 was 50 to 100 nM. For `Nc1ccccc1NC(=O)c1ccc(Cn2cc3c(n2)CCCC3)cc1` [Example 129, N-(2-aminophenyl)-4-((4,5,6,7-tetrahydro-2H-indazol-2-yl)methyl)benzamide], the IC50 was 50 to 100 nM. `Cc1nn(Cc2ccc(C(=O)Nc3ccccc3N)cc2)c2cc(F)ccc12` [Example 68, N-(2-aminophenyl)-4-((6-fluoro-3-methyl-1H-indazol-1-yl)methyl)benzamide] showed an IC50 of 50 to 100 nM. `Cc1nn(Cc2ccc(C(=O)Nc3ccccc3N)cc2)c2cc(O)ccc12` [Example 74, N-(2-aminophenyl)-4-((6-hydroxy-3-methyl-1H-indazol-1-yl)methyl)benzamide] was tested, and the IC50 was ≤ 50 nM. `Nc1ccccc1NC(=O)c1ccc(Cn2nc3ccccc3n2)cc1` [Example 101, 4-((2H-benzo[d][1,2,3]triazol-2-yl)methyl)-N-(2-aminophenyl)benzamide] gave an IC50 of 50 to 100 nM. `Cc1ccc2nn(Cc3ccc(C(=O)Nc4ccccc4N)cc3)c(C)c2c1` [Example 81, N-(2-aminophenyl)-4-((3,5-dimethyl-2H-indazol-2-yl)methyl)benzamide] was tested, and the IC50 was 50 to 100 nM. In the case of `COc1cccc2nn(Cc3ccc(C(=O)Nc4ccccc4N)cc3)cc12` [Example 83, N-(2-aminophenyl)-4-((4-methoxy-2H-indazol-2-yl)methyl)benzamide], the IC50 is reported as ≤ 50 nM. `Nc1ccccc1NC(=O)c1ccc(Cn2cc(C(=O)NCCN3CCOCC3)cn2)cc1` [Example 147, 1-(4-(2-aminophenylcarbamoyl)benzyl)-N-(2-morpholinoethyl)-1H-pyrazole-4-carboxamide] was tested, and the IC50 was 50 to 100 nM. `CN(C)C(=O)c1cnn(Cc2ccc(C(=O)Nc3ccccc3N)cc2)c1` [Example 136, 1-(4-(2-aminophenylcarbamoyl)benzyl)-N,N-dimethyl-1H-pyrazole-4-carboxamide] gave an IC50 of 100 to 500 nM. In the case of `CC(=O)Nc1ccc2c(cnn2Cc2ccc(C(=O)Nc3ccccc3N)cc2)c1` [Example 3, 4-((5-acetamido-1H-indazol-1-yl)methyl)-N-(2-aminophenyl)benzamide], the IC50 is reported as ≤ 50 nM. For `Cc1c2cccc(C(F)(F)F)c2nn1Cc1ccc(C(=O)Nc2ccccc2N)cc1` [Example 91, N-(2-aminophenyl)-4-((3-methyl-7-(trifluoromethyl)-2H-indazol-2-yl)methyl)benzamide], the IC50 was 50 to 100 nM. Work on `Nc1ccccc1NC(=O)c1ccc(Cn2nc(Cl)c3ccccc32)cc1` [Example 60, N-(2-aminophenyl)-4-((3-chloro-1H-indazol-1-yl)methyl)benzamide] yielded an IC50 of 50 to 100 nM. For `NC(=O)c1cnn(Cc2ccc(C(=O)Nc3ccccc3N)cc2)c1` [Example 142, 1-(4-(2-aminophenylcarbamoyl)benzyl)-1H-pyrazole-4-carboxamide], the IC50 was 50 to 100 nM. `Nc1ccccc1NC(=O)c1ccc(Cn2ncc3cc(NC(=O)OCc4cccnc4)ccc32)cc1` [Example 23, Pyridin-3-ylmethyl 1-(4-((2-aminophenyl)carbamoyl)benzyl)-1H-indazol-5-ylcarbamate] was tested, and the IC50 was ≤ 50 nM. Molecule `Nc1ccccc1NC(=O)c1ccc(Cn2nc3ccccc3c2-c2ccccc2)cc1` [Example 77, N-(2-aminophenyl)-4-((3-phenyl-2H-indazol-2-yl)methyl)benzamide] has an IC50 of 50 to 100 nM. With `Nc1ccccc1NC(=O)c1ccc(Cn2ncc3c(Cl)cccc32)cc1` [Example 42, N-(2-aminophenyl)-4-((4-chloro-1H-indazol-1-yl)methyl)benzamide] the IC50 was ≤ 50 nM. `Cc1nn(Cc2ccc(C(=O)Nc3ccccc3N)cc2)c2cc(F)c(F)cc12` [Example 56, N-(2-aminophenyl)-4-((5,6-difluoro-3-methyl-1H-indazol-1-yl)methyl)benzamide] was tested, and the IC50 was 50 to 100 nM. In the case of `CC(Cn1ncc2ccccc21)c1ccc(C(=O)Nc2ccccc2N)cc1` (stereo not shown) [Example 39, 4-(1-(1H-indazol-1-yl)propan-2-yl)-N-(2-aminophenyl)benzamide], the IC50 is reported as ≥ 500 nM. With `COc1cccc2cn(Cc3ccc(C(=O)Nc4ccccc4N)cc3)nc12` [Example 82, N-(2-aminophenyl)-4-((7-methoxy-2H-indazol-2-yl)methyl)benzamide] the IC50 was 50 to 100 nM. `Nc1ccccc1NC(=O)c1ccc(Cn2ncc3cc(NC(=O)c4ccccc4)ccc32)cc1` [Example 6, 4-((5-benzamido-1H-indazol-1-yl)methyl)-N-(2-aminophenyl)benzamide] was tested, and the IC50 was ≤ 50 nM. `C[C@H](c1ccc(C(=O)Nc2ccccc2N)cc1)n1cc2ccccc2n1` [Example 50, (R)-4-(1-(2H-indazol-2-yl)ethyl)-N-(2-aminophenyl)benzamide] gave an IC50 of 50 to 100 nM. Molecule `Nc1ccccc1NC(=O)c1ccc(Cn2[nH]c(=O)c3ccccc32)cc1` [Example 64, N-(2-aminophenyl)-4-((3-oxo-2,3-dihydro-1H-indazol-1-yl)methyl)benzamide] has an IC50 of 50 to 100 nM.
